Measured values: US20240158369A1, “PYRIMIDINE COMPOUND AS WEE-1 INHIBITOR” (WIGEN BIOMEDICINE TECHNOLOGY (SHANGHAI) CO., LTD., priority 2021, published 2024)
Where two headings read alike, the source gives them in different places.

Assays:
MIA PaCa-2 cells = assay: In-vitro anti-proliferative activity in combination with gemcitabine on MIA PaCa-2 cells; assay type: cell-based; conditions: 72 h
Experimental: MIA PaCa-2 cells were seeded on a 384-well plate at 3000 cells/well, and 20 nM or 200 nM gemcitabine (GMC) was added. After overnight adherence culture, DMSO or the compounds serially 1:5-diluted from 100 nM were added. The viability was assessed 72 h after dosing by measuring the intracellular ATP content. The inhibition percentage of viable cells by the compounds was calculated by comparing with the DMSO group, and the IC50 value was calculated.

[1] = molecular target: recombinant protein Wee-1 (Homo sapiens (Human), UniProt P30291); assay: HTRF assay for inhibiting enzymatic activity of recombinant protein Wee-1; assay type: biochemical; conditions: compounds up to 200 nM, read-out: (IC50) Inhibitory activity against recombinant protein Wee-1
Chain of recombinant protein Wee-1 (P30291 whole entry): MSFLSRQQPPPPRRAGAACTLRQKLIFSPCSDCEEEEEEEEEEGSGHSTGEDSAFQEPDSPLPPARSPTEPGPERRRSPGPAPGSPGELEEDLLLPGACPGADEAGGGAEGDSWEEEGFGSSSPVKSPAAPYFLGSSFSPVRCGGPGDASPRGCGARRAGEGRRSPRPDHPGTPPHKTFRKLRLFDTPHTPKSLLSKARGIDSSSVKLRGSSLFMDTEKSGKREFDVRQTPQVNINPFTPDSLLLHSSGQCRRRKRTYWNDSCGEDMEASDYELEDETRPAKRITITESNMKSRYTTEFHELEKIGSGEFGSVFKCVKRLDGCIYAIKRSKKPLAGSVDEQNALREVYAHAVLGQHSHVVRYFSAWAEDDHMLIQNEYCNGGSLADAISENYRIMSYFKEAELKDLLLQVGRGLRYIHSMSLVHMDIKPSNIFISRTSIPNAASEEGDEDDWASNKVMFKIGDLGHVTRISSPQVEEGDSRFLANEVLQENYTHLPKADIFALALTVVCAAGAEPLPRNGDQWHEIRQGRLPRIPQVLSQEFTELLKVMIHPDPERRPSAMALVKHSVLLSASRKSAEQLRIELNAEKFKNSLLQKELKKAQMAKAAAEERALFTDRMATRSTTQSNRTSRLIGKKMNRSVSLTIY
Experimental: The inhibitory effect of the compounds on the enzyme activity of recombinant protein Wee-1 was determined by HTRF. The procedures are as follows:
After DMSO or serially diluted compounds (up to 200 nM, 1:5 diluted) and recombinant proteins were co-incubated in a kinase buffer at 37° C. for 30 min before Fluorescein-PolyGAT and ATP were added, and the reaction was initiated by addition of a substrate. After incubation at room temperature for 90 min, an antibody and a detection solution were added, and after further incubation at room temperature for 60 min, fluorescence values were detected (excitation wavelength: 340 nm, emission wavelengths: 495 and 520 nm). The 520 nm/495 nm fluorescence intensity ratio value was calculated, and compared with that of the DMSO group, and then the inhibition percentages and IC50 values of the compounds were calculated.

[2] = with 20 nM gemcitabine, read-out: in combination with 20 nM GMC IC50
[3] = with 200 nM gemcitabine, read-out: in combination with 200 nM GMC IC50

Compound	IC50 (MIA PaCa-2 cells; [2]) [nM]	IC50 [1] [nM]	IC50 (MIA PaCa-2 cells; [3]) [nM]
Cc1cc(Nc2ncc(C#N)c(Nc3cccc(N=S(C)(C)=O)n3)n2)cc(C2CC2)c1N1CCN(C)CC1 [Compound 156]	6	≤ 10	
CN1CCN(c2cccc(Nc3ncc(C#N)c(Nc4cccc(N=S(C)(C)=O)n4)n3)c2)CC1 [Compound 63]	18.4	≤ 10	
CN1CCc2ccc(Nc3ncc(I)c(Nc4cccc(N=S(C)(C)=O)n4)n3)cc2C1 [Compound 105]	26.5	≤ 10	
CN1CCc2c(cc(Nc3ncc(C#N)c(Nc4cccc(N=S(C)(C)=O)n4)n3)cc2C2=CCCCC2)C1 [Compound 152]	3.8	≤ 10	
CN1CCc2c(CO)cc(Nc3ncc(C#N)c(Nc4cccc(N=S(C)(C)=O)n4)n3)cc2C1 [Compound 131]	6.7	≤ 10	
CN1CCc2c(I)cc(Nc3ncc(C#N)c(Nc4cccc(N=S(C)(C)=O)n4)n3)cc2C1 [Compound 28]	14.5	≤ 10	
CN1CCc2c(cc(Nc3ncc(C#N)c(Nc4cccc(N=S(C)(C)=O)n4)n3)cc2N2CCCC2)C1 [Compound 19]		≤ 10	640
Cc1cc(Nc2ncc(C#N)c(Nc3cccc(N=S(C)(C)=O)n3)n2)cc(C)c1N1CCN(C)CC1 [Compound 154]	2.4	≤ 10	
CN1CCN(c2cc(Nc3ncc(C#N)c(Nc4cccc(N=S(C)(C)=O)n4)n3)cc3c2CCN(C)C3)CC1 [Compound 119]	2.6	≤ 10	
C[C@@H]1CN(c2cc(Nc3ncc(C#N)c(Nc4cccc(N=S(C)(C)=O)n4)n3)cc3c2CCN(C)C3)C[C@H](C)O1 [Compound 127]	8.2	≤ 10	
CN1CCN(c2ccc(Nc3ncc(C#N)c(Nc4cccc(N=S(C)(C)=O)n4)n3)cc2)CC1 [Compound 61]	7.5	≤ 10	
CN1CCc2ccc(Nc3ncc(C#N)c(-c4cn(C)c5c(N=S(C)(C)=O)cccc45)n3)cc2C1 [Compound 79]		≤ 10	> 100
C=Cc1cc(N=S(C)(C)=O)nc(Nc2nc(Nc3ccc4c(c3)CN(C)CC4)ncc2C#N)c1 [Compound 85]		≤ 10	> 100
CN1CCc2ccc(Nc3ncc(C#N)c(Nc4cccc(N=S(C)(C)=O)c4)n3)cc2C1 [Compound 64]	34	≤ 10	
CN1CCc2c(C#N)cc(Nc3ncc(C#N)c(Nc4cccc(N=S(C)(C)=O)n4)n3)cc2C1 [Compound 41]		10 to 50	> 100
Cc1cc(Nc2ncc(C#N)c(Nc3cccc(N=S(C)(C)=O)n3)n2)cc2c1CCN(C)C2 [Compound 12]	1.4	≤ 10	
Cc1cc(Nc2ncc(C#N)c(Nc3cccc(N=S(C)(C)=O)n3)n2)ccc1N1CCN(C)CC1 [Compound 153]	3.5	≤ 10	
CC1CN(c2cc(Nc3ncc(C#N)c(Nc4cccc(N=S(C)(C)=O)n4)n3)cc3c2CCN(C)C3)CCO1 (stereo not drawn) [Compound 123]	28	≤ 10	
CN1CCc2c(cc(Nc3ncc(C#N)c(Nc4cccc(N=S(C)(C)=O)n4)n3)cc2-c2cc[nH]n2)C1 [Compound 112]	> 100	≤ 10	
C[C@@H]1CN(c2cc(Nc3ncc(C#N)c(Nc4cccc(N=S(C)(C)=O)n4)n3)cc3c2CCN(C)C3)C[C@@H](C)O1 [Compound 122]	49	≤ 10	
C=C(C)c1cc(Nc2ncc(C#N)c(Nc3cccc(N=S(C)(C)=O)n3)n2)cc2c1CCN(C)C2 [Compound 15]	1.8	≤ 10	
CN1CCc2ccc(Nc3ncc(C#N)c(Oc4cccc(N=S(C)(C)=O)n4)n3)cc2C1 [Compound 106]	> 100	≤ 10	
CN1CCc2ccc(Nc3ncc(C#N)c(Nc4cccc(N=S(C)(C)=O)n4)n3)cc2CC1 [Compound 55]	11.3	≤ 10	

Compound	IC50 (MIA PaCa-2 cells; [2]) [nM]	IC50 [1] [nM]	IC50 (MIA PaCa-2 cells; [3]) [nM]
CN1CCc2ccc(Nc3ncc(C(=O)N(C)C)c(Nc4cccc(N=S(C)(C)=O)n4)n3)cc2C1 [Compound 8]	> 100	> 50	
CN(C)Cc1cc(Nc2ncc(C#N)c(Nc3cccc(N=S(C)(C)=O)n3)n2)cc2c1CCN(C)C2 [Compound 130]	10	≤ 10	
CN1CCc2c(cc(Nc3ncc(C#N)c(Nc4cccc(N=S(C)(C)=O)n4)n3)cc2-c2ccn(C)n2)C1 [Compound 113]	11.7	≤ 10	
CN1CCc2c(cc(Nc3ncc(C#N)c(Nc4cccc(N=S(C)(C)=O)n4)n3)cc2N2CCOCC2)C1 [Compound 116]	1.3	≤ 10	
CN1CCc2ccc(Nc3ncc(C#N)c(N4CCc5c(N=S(C)(C)=O)cccc54)n3)cc2C1 [Compound 77]		≤ 10	> 100
CN1CCc2c(cc(Nc3ncc(C#N)c(Nc4ccccc4N=S(C)(C)=O)n3)cc2C2CC2)C1 [Compound 150]	3.5	10 to 50	
CN1CCc2ccc(Nc3ncc(-c4ccc(F)nc4)c(Nc4cccc(N=S(C)(C)=O)n4)n3)cc2C1 [Compound 108]	> 100	10 to 50	
CN1CCc2c(cc(Nc3ncc(C#N)c(Nc4cccc(N=S(C)(C)=O)n4)n3)cc2C2=CCCC2)C1 [Compound 17]	11	≤ 10	
CN1CCc2c(cc(Nc3ncc(C#N)c(Nc4cccc(N=S(C)(C)=O)n4)n3)cc2CN2CCOCC2)C1 [Compound 121]	113	≤ 10	
CN1Cc2cc(Nc3ncc(C#N)c(Nc4cccc(N=S(C)(C)=O)n4)n3)ccc2C2(CC2)C1 [Compound 29]	3.7	≤ 10	
COc1cc2c(cc1Nc1ncc(C#N)c(Nc3cccc(N=S(C)(C)=O)n3)n1)CN(C)CC2 [Compound 147]	50	≤ 10	
CN1CCc2ccc(Nc3nccc(Nc4cccc(N=S(C)(C)=O)n4)n3)cc2C1 [Compound 145]	> 100	> 50	
CN1CCc2c(cc(Nc3ncc(C#N)c(Nc4ccc(F)c(N=S(C)(C)=O)n4)n3)cc2N2CCC2)C1 [Compound 96]		≤ 10	
CN1CCc2c(cc(Nc3ncc(C#N)c(Nc4cncc(N=S(C)(C)=O)n4)n3)cc2C2CC2)C1 [Compound 138]		≤ 10	
CCc1cc(Nc2ncc(C#N)c(Nc3ccnc(N=S(C)(C)=O)n3)n2)cc2c1CCN(C)C2 [Compound 144]		≤ 10	
CN1CCc2c(cc(Nc3ncc(C#N)c(Nc4ccc(F)c(N=S(C)(C)=O)n4)n3)cc2C2CC2)C1 [Compound 94]		≤ 10	
CN1CCc2c(cc(Nc3ncc(C#N)c(Nc4cccc(N=S(C)(C)=O)n4)n3)cc2N(C)C)C1 [Compound 44]		≤ 10	
Cc1cc(Nc2ncc(C#N)c(Nc3cc(F)cc(N=S(C)(C)=O)n3)n2)cc2c1CCN(C)C2 [Compound 74]		≤ 10	
CN1CCc2c(CCO)cc(Nc3ncc(C#N)c(Nc4cccc(N=S(C)(C)=O)n4)n3)cc2C1 [Compound 132]		≤ 10	
CC(C)Oc1cc(Nc2ncc(C#N)c(Nc3ccc(F)c(N=S(C)(C)=O)n3)n2)cc2c1CCN(C)C2 [Compound 93]		≤ 10	
CN1CCc2ccc(Nc3ncc(C#N)c(Nc4nccc(N=S(C)(C)=O)n4)n3)cc2C1 [Compound 70]		≤ 10	
CCc1cc(Nc2ncc(C#N)c(Nc3cccc(N=S(=O)(CC)CC)n3)n2)cc2c1CCN(C)C2 [Compound 158]		≤ 10	
CN1CCc2c(cc(Nc3ncc(C#N)c(Nc4ccc(F)c(N=S(C)(C)=O)n4)n3)cc2C2CCCC2)C1 [Compound 99]		≤ 10	
